PubChem BioAssay AID504322 (Emory University Molecular Libraries Screening Center, 2011)
Calls of active or inactive are those of the source. The rule behind the calls is not given here.

Tested on: CHOP reporter cell assay, percent of control
Experiment: CHOP reporter inhibitor potency, dose response, cell-based (AID 504322);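 note: CHO cells carrying a CHOP reporter stimulated with tunicamycin to induce ER stress; potency is for inhibition of the stress-induced reporter signal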

Compound | IC50
OC(CNCC(c1ccc(Cl)cc1Cl)c1c[nH]c2ccccc12)c1ccccc1 (centres undefined) | 1.79 µM
CCCC(NCC(O)COc1ccc(-c2ccccc2)cc1)c1ccccc1 (centres undefined) | 9.3 µM (inactive)
O=S1(=O)C=C(Sc2nc3cc(Cl)ccc3o2)c2ccccc21 | 2.91 µM
CCc1ccc(NP(=O)(Oc2ccccc2F)Oc2ccccc2F)cc1 | 9.66 µM (inactive)
N=c1n(CC(=O)c2ccc([N+](=O)[O-])cc2)c2ccccc2n1Cc1ccc(Cl)cc1 | > 10 µM (inactive)
N#CC1=C(N)N2C(=C(C#N)C1c1cccc(Br)c1)Nc1ccccc12 (centres undefined) | 5.07 µM (inactive)
Cc1ccc(NC(=O)C(=O)NCC2OCCc3ccccc32)cc1 (centres undefined) | 8.99 µM (inactive)
CC1CCC(C(C)C)C(OC(=O)COC(=O)c2cc(O)ccc2N)C1 (centres undefined) | 4.09 µM (inactive)
CCCCC(CC)C(=O)Oc1ccc(O)c(C(C)(C)C)c1 (centres undefined) | 2.37 µM (inactive)
O=C1CC(c2ccco2)CC(O)=C1C=Nc1ccccc1-c1ccccc1 (centres undefined) | 2.84 µM (inactive)
O=C(CCl)Nc1cccc(-c2cnc3ccccc3n2)c1 | 6.64 µM (inactive)
COc1ccc(C(=O)Nc2nnc(-c3ccco3)s2)cc1 | 8.58 µM (inactive)
COc1cc(CNCc2ccccn2)ccc1OCc1ccc(Cl)cc1Cl | 6.74 µM (inactive)
COc1cc(-c2nc3c(c(C)nn3-c3ccccc3)c3cc(OC)c(OC)cc23)ccc1O | 9.85 µM (inactive)
C=CCOC(=O)C1=C(C)NC(SCC(=O)Nc2nccs2)=C(C#N)C1c1ccc(Cl)cc1 (centres undefined) | 9.67 µM (inactive)
CCOC(=O)CCS(=O)(=O)c1nc(-c2ccccc2)cc(C(F)(F)F)n1 | < 0.16 µM
CNC(=O)NC(=O)C(C)OC(=O)c1oc2ccccc2c1CSc1ccc(Cl)cc1 (centres undefined) | > 10 µM (inactive)
Cc1nc(SCC(=O)Nc2cc(C)on2)c2c3c(sc2n1)CCCC3 | > 10 µM (inactive)
Cc1nc2ccccn2c1C(=O)N=Nc1c(O)n(CCC(C)C)c2ccccc12 | > 10 µM (inactive)
CCCCCCOC(=O)c1ccccc1N | 6.31 µM (inactive)
CN1CCc2c(sc(NC(=O)c3cc4cc([N+](=O)[O-])ccc4s3)c2C(N)=O)C1 | 4.6 µM
CCOC(=O)c1cnc(-n2nc(C)cc2C)nc1NC1CCCCC1 | > 10 µM (inactive)
O=C(CNc1cccc(C(F)(F)F)c1)N/N=C/c1cccc(Br)c1 | > 10 µM (inactive)
CCOC(=O)c1cc(-c2cccs2)nc2c1c(C)nn2-c1ccccn1 | 9.14 µM (inactive)
CC(C)(C)C(=O)Nc1ccc(-c2nc3ccccc3c(=O)o2)cc1 | 0.7 µM (inactive)

Compound | IC50
CN1CCN(c2ccc(-c3ccc4ccccc4n3)cc2)CC1 | < 0.16 µM (inactive)
CC(C)c1ccc(NC(=O)CSc2nc(-c3ccccc3F)nc3nc[nH]c23)cc1 | 9.99 µM (inactive)
COC(=O)CS(=O)(=O)c1nnc([C@H](Cc2ccccc2)NC(=O)OC(C)(C)C)o1 | 4.68 µM
Cc1nn(Cc2c(Cl)cccc2Cl)c(C)c1NC(=O)c1cn(-c2ccccc2)nc1-c1ccccc1 | 4.8 µM
O=C(Nc1cc(N2CCOCC2)ncn1)NC1(C(F)(F)F)Oc2ccc(Cl)cc2O1 (centres undefined) | > 10 µM (inactive)
C/C(N)=C(/C#N)C(=O)COC(=O)C1CCC(C(C)(C)C)CC1 (centres undefined) | 2.41 µM
COc1ccccc1-n1cc([C@@H]2C[C@H]3CN(c4ccccc4)C(=O)[C@]34CCCN24)cn1 | 1.89 µM
COc1cc(/C=C(/C#N)c2nc3ccccc3c(=O)[nH]2)ccc1O | > 10 µM (inactive)
O=S(=O)(Nc1cccc2c1CCCC2)c1cccc(C(F)(F)F)c1 | 9.51 µM (inactive)
CCCCCn1c(SCCC(C)C)nc2c1c(=O)[nH]c(=O)n2C | 6.85 µM (inactive)
C=C1C(=O)O[C@@H]2C[C@@H](C)[C@@H]3C=CC(=O)[C@@]3(C)[C@@H](O)[C@H]12 | 2.61 µM
O=C(COc1ccc(Cl)cc1Cl)Nc1ccccn1 | 2.43 µM
CC1CCC(n2c(=S)[nH]c3ccccc3c2=O)CC1 (centres undefined) | > 10 µM (inactive)
CCCCn1c(=O)c(C(=O)Nc2cnccn2)c(O)c2ccccc21 | 7.31 µM (inactive)
CCOc1ccc(C2C=C(c3ccc(C)cc3)Nc3nnnn32)cc1 (centres undefined) | 9.86 µM (inactive)
CC(C)(C)c1ccc(S(=O)(=O)NCC(=O)Nc2sc3c(c2C(N)=O)CCCC3)cc1 | 9.83 µM (inactive)
O=[N+]([O-])c1c(NCCCO)cc(Sc2nc3ccccc3s2)c2nonc12 | > 10 µM (inactive)
Oc1ccc(/C=N/Nc2nc(-c3ccc(Cl)cc3)cc(C(F)(F)F)n2)cc1 | 5.8 µM (inactive)
O=C(CCl)N(c1ccc(Cl)cc1)c1c[nH]c2ccccc12 | 9.58 µM (inactive)
CCSCCc1nnc(NC(=O)Nc2cccc(C(F)(F)F)c2)s1 | 6.82 µM (inactive)
O=C(OCC(F)(F)F)c1cccc(COc2ccc3ccccc3c2)c1 | 1.26 µM
Cc1nc(NC(=O)CSc2nc3cccnc3n2Cc2ccccc2)sc1C | > 10 µM (inactive)
O=C(c1ccc(COc2ccc(Cl)cc2)o1)N1N=C(C(F)F)CC1(O)C(F)F (centres undefined) | 9.64 µM (inactive)
COc1ccc(/C=C2/SC(=S)N(CCCC(=O)Nc3ccc(O)cc3)C2=O)cc1 | 0.25 µM
Cc1cc(C(C)(C)C)oc1C(=O)N1CCN(C(=O)c2oc(C(C)(C)C)cc2C)CC1 | 9.99 µM (inactive)

Compound | IC50
FC(F)(F)c1cccc(CN2CCC(c3cc(-c4cccs4)n[nH]3)CC2)c1 | 9.4 µM (inactive)
Cc1cccc(N=Nc2c(N)n[nH]c2-c2ccc(Cl)cc2)c1 | 9.41 µM (inactive)
CCOc1cc(/C=C\[N+](=O)[O-])ccc1OCC(=O)Nc1ccccc1C | 4.96 µM (inactive)
CC(C)(C)c1ccc(C2CC2C(=O)N/N=C\c2ccc[nH]2)cc1 (centres undefined) | 4.18 µM (inactive)
COc1ccc(C(=O)c2c(C(F)(F)F)oc3c2C(=O)c2ccccc2C3=O)cc1 | 9.46 µM (inactive)
COc1ccc(NC(=O)c2cc3cccc(OC)c3oc2=Nc2ccc(C(=O)O)cc2)cc1OC | 5.28 µM (inactive)
CC(C)C[C@H](NC(=O)c1nc[nH]c1C(=O)NCC(=O)OC(C)(C)C)C(=O)OCc1ccccc1 | > 10 µM (inactive)
Cc1ccn2cc(-c3cc4ccccc4oc3=O)nc2c1 | 9.15 µM (inactive)
Cc1cc(/C=N/n2cnnc2)c(C)n1-c1ccc(OCc2ccc(Cl)cc2Cl)cc1 | < 0.16 µM (inactive)
Nc1cccc(Nc2nc(OC(C(F)(F)F)C(F)(F)F)nc(OC(C(F)(F)F)C(F)(F)F)n2)c1 | 3.09 µM (inactive)
O=C1CC(Sc2nnnn2-c2ccccc2)C(=O)N1c1cccc(Cl)c1 (centres undefined) | > 10 µM (inactive)
CCSc1nc2ccccc2n1C(=O)/C=C/c1ccc(OC)c(OC)c1 | 4.97 µM
CCCCS(=O)(=O)/C=C\C=C/S(=O)(=O)CCCC | 2.12 µM
CCOc1cc(/C=C2/C(=O)ON=C2C)ccc1OCc1ccccc1F | 9.48 µM (inactive)
CC1=CC(=O)C=C(C)C1=NOS(=O)(=O)c1ccccc1 | 5.48 µM (inactive)
COc1ccc(C(=O)NC(=O)Nc2cc(C)ccn2)cc1 | 9.99 µM (inactive)
COC(=O)c1ccc2c(c1)C(C)(C)C(/C=C/c1ccc(O)cc1)=[N+]2C | > 10 µM (inactive)
Cc1ccc(Nc2nc(N)nc(CN3CCN(c4ccccc4)CC3)n2)cc1Cl | 8.47 µM
CN1CC(c2ccccc2)C2(SC(=S)N(Cc3ccco3)C2=O)C12C(=O)Nc1ccccc12 (centres undefined) | > 10 µM (inactive)
FC(F)C(F)(F)C(F)(F)C(F)(F)c1cc(-c2ccccc2)n[nH]1 | 9.67 µM (inactive)
Nc1ccc2oc(-c3cc(Br)ccc3Cl)nc2c1 | 0.71 µM
CC1CCc2cc(F)ccc2N1C(=O)CSc1nnc2c(n1)[nH]c1ccc(F)cc12 (centres undefined) | 9.19 µM (inactive)
O=[N+]([O-])c1ccc(NC(=S)NCCc2ccc(Cl)cc2)cc1 | > 10 µM (inactive)
CN=C1SC(CC(=O)Nc2ccc(F)cc2F)C(=O)N1/N=C/c1ccc(OC(F)F)c(OC)c1 (centres undefined) | 9.78 µM (inactive)
CCOC(=O)c1c(NC(=O)Cc2cccs2)sc(C(=O)NC2CCCCC2)c1C | 2.99 µM

Compound | IC50
COc1ccc(C(CCNCc2ccc(F)cc2)c2ccc(F)cc2)cc1 (centres undefined) | 9.74 µM (inactive)
NC(=O)c1ccc(C(F)(F)F)n(Cc2c(Cl)cccc2Cl)c1=O | 9.4 µM (inactive)
CCCCn1c(NS(=O)(=O)c2ccccc2)c(S(=O)(=O)c2ccc(C)cc2)c2nc3ccccc3nc21 | 9.67 µM (inactive)
CCCCCCCC(=O)N/N=C/c1ccc(Br)cc1 | 3.51 µM
O=C1c2ccc3c4c(ccc(c24)C(=O)N1c1cccc(O)c1)C(=O)N(c1cccc(O)c1)C3=O | 9.81 µM (inactive)
Cc1ccc(OCC(=O)N2N=C(C(F)(F)F)CC2(O)C(C)(C)C)cc1C (centres undefined) | 5.25 µM (inactive)
Cc1cc(O)c(NC(=S)NC(=O)c2ccc(-c3ccc(Cl)cc3)o2)cc1C | < 0.16 µM
COC(=O)/C(=C1/Oc2cc(C)oc(=O)c2S1)C(F)(F)F | 4.93 µM
CCCOc1ccc(Cc2c(Cl)nc(SC)nc2NC)cc1 | 8.18 µM (inactive)
CCN=C1NN=C(c2cc(C)n(Cc3ccco3)c2C)CS1 | < 0.16 µM
O=C1CC(c2ccccc2Cl)CC(O)=C1C=Nc1ccccc1 (centres undefined) | 6.54 µM (inactive)
CC1CCCC(NC(=O)COC(=O)/C=C/c2ccc3c(c2)OCO3)C1C (centres undefined) | > 10 µM (inactive)
O=C1C(=C2SCCCS2)CC/C1=C\c1ccc(F)cc1 | 4.38 µM (inactive)
O=C(NCc1nc(-c2ccc(C(F)(F)F)cc2)no1)Nc1cc(Cl)cc(Cl)c1 | 4.78 µM
CCc1ccc(OCc2n[nH]c(=S)n2C(C)CCCC(C)C)cc1 (centres undefined) | 2.44 µM
Cc1sc2ncnc(N3CCCCC3C)c2c1C (centres undefined) | > 10 µM (inactive)
O=C(CCCOc1ccc(Cl)cc1Cl)N/N=C\C1CCCCC1 | 5.03 µM (inactive)
CC1=C/C(=N\OS(=O)(=O)c2ccccc2)C=CC1=O | 1.43 µM
Cc1cccc(NCC(=O)N/N=C\c2cccc(Oc3ccccc3)c2)c1 | 8.02 µM (inactive)
Cc1cc(C(=O)N/N=C/c2ccc(-c3cccc(Cl)c3Cl)o2)n[nH]1 | 5.27 µM (inactive)
O=C(Nc1ccc(S(=O)(=O)N2CCOCC2)cc1)c1ccc(CN2CCc3ccccc3C2)cc1 | < 0.16 µM
Cc1nc(SCC(=O)Nc2ccc(F)cc2)c(C#N)c(C)c1CC(=O)c1ccc(Br)cc1 | > 10 µM (inactive)
Cn1c(-c2cccc(OCc3ccccc3)c2)nc2c1c(=O)[nH]c(=O)n2Cc1ccccc1 | > 10 µM (inactive)
COc1ccc(-c2nc(-c3ccc(NC(=O)c4ccc(Br)o4)cc3)no2)cc1OC | > 10 µM (inactive)
